Measurements published in ChEMBL document CHEMBL1201862, “PubChem BioAssay data set” (2004).
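Step 1: Grow cells in 96-well plates. Step 2: Expose to compound for 48 hours at 5 concentrations. Step 3: Interpolate endpoints linearly; if unreached, use highest concentration. GI50 is the concentration that inhibits growth by half.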 Activity calls are given as the source filed them. No stated cut-off is given here; in the data, active = GI50 up to about 1.1 µM and inactive = higher.

Key:
Test in all cases: inhibition of tumour cell growth, NCI panel, 48 h
[1] = test system: A549
[2] = test system: ACHN
[3] = test system: CAKI-1
[4] = test system: DU-145
[5] = test system: HL-60
[6] = test system: HT-29
[7] = test system: Hs-578T
[8] = test system: LOX IMVI
[9] = test system: MCF7
[10] = test system: MDA-MB-231
[11] = test system: MDA-MB-435
[12] = test system: OVCAR-3
[13] = test system: SF-268
[14] = test system: SK-MEL-28
[15] = test system: SNB-19
[16] = test system: SR
[17] = test system: T47D
[18] = test system: DLD-1
[19] = test system: DMS-114

COc1cccc2c(Nc3ccc(S(=O)(=O)NC(C)=O)cc3)c3ccc([N+](=O)[O-])cc3nc12
GI50 [1]: 39.4 µM (inactive) | GI50 [2]: 26.2 µM (inactive) | GI50 [3]: 65.6 µM (inactive) | GI50 [4]: > 70.3 µM (inactive) | GI50 [5]: 36 µM (inactive) | GI50 [6]: 13.8 µM (inactive) | GI50 [7]: 32.3 µM (inactive) | GI50 [8]: 37.2 µM (inactive) | GI50 [9]: 13.1 µM (inactive) | GI50 [10]: 21.2 µM (inactive) | GI50 [11]: 31.6 µM (inactive) | GI50 [12]: 32.5 µM (inactive) | GI50 [13]: 25.1 µM (inactive) | GI50 [14]: > 48.4 µM (inactive) | GI50 [15]: > 45 µM (inactive) | GI50 [16]: 4.15 µM (inactive) | GI50 [17]: 94.4 µM (inactive)

Cn1c(CCC#N)nc2ccc(Br)cc2c1=O
GI50 [1]: > 100 µM (inactive) | GI50 [2]: > 100 µM (inactive) | GI50 [3]: > 100 µM (inactive) | GI50 [18]: > 100 µM (inactive) | GI50 [19]: > 100 µM (inactive) | GI50 [5]: > 100 µM (inactive) | GI50 [6]: > 100 µM (inactive) | GI50 [8]: > 100 µM (inactive) | GI50 [13]: > 100 µM (inactive) | GI50 [14]: > 100 µM (inactive)

Oc1cc(Br)cc2cc(Br)cnc12
GI50 [1]: 3.29 µM (inactive) | GI50 [2]: 1.48 µM (inactive) | GI50 [3]: 8.55 µM (inactive) | GI50 [4]: 3.68 µM (inactive) | GI50 [5]: 0.22 µM (active) | GI50 [6]: 27.5 µM (inactive) | GI50 [7]: 3.24 µM (inactive) | GI50 [8]: 0.661 µM (active) | GI50 [9]: 5.35 µM (inactive) | GI50 [10]: 12.2 µM (inactive) | GI50 [11]: 3.44 µM (inactive) | GI50 [12]: 1.58 µM (inactive) | GI50 [13]: 1.1 µM (active) | GI50 [14]: 2.02 µM (inactive) | GI50 [15]: 3.33 µM (inactive) | GI50 [16]: 1.26 µM (inactive) | GI50 [17]: 2.8 µM (inactive)

CCOP(=O)(OCC)/C(F)=C/c1ccc(F)cc1
GI50 [1]: > 100 µM (inactive) | GI50 [2]: > 100 µM (inactive) | GI50 [3]: > 100 µM (inactive) | GI50 [4]: > 100 µM (inactive) | GI50 [5]: > 100 µM (inactive) | GI50 [6]: > 100 µM (inactive) | GI50 [7]: > 100 µM (inactive) | GI50 [8]: > 100 µM (inactive) | GI50 [9]: > 100 µM (inactive) | GI50 [10]: > 100 µM (inactive) | GI50 [11]: > 100 µM (inactive) | GI50 [12]: > 100 µM (inactive) | GI50 [13]: > 100 µM (inactive) | GI50 [14]: > 100 µM (inactive) | GI50 [15]: > 100 µM (inactive) | GI50 [16]: > 100 µM (inactive) | GI50 [17]: > 100 µM (inactive)

O=C(c1ccccc1)c1ccc2nc3n(c2c1)C(c1c(F)cccc1F)SC3 (stereo not drawn)
GI50 [1]: 4.79 µM (inactive) | GI50 [2]: 3.85 µM (inactive) | GI50 [3]: 5.13 µM (inactive) | GI50 [4]: 11.3 µM (inactive) | GI50 [5]: 2.03 µM (inactive) | GI50 [6]: 4.93 µM (inactive) | GI50 [7]: 8.55 µM (inactive) | GI50 [8]: 6.11 µM (inactive) | GI50 [9]: 3.85 µM (inactive) | GI50 [10]: 12.9 µM (inactive) | GI50 [11]: 1.45 µM (inactive) | GI50 [12]: 4.9 µM (inactive) | GI50 [13]: 9.66 µM (inactive) | GI50 [14]: 22.3 µM (inactive) | GI50 [15]: 4.98 µM (inactive) | GI50 [16]: 0.847 µM (active) | GI50 [17]: 4.49 µM (inactive)

CC1CC(=O)Nc2ccc(Cl)cc2N1C(=O)CN1CCC(CCCCN(C)C)CC1 (stereo not drawn)
GI50 [1]: > 100 µM (inactive) | GI50 [2]: > 100 µM (inactive) | GI50 [3]: > 100 µM (inactive) | GI50 [18]: > 100 µM (inactive) | GI50 [19]: > 100 µM (inactive) | GI50 [5]: > 100 µM (inactive) | GI50 [6]: > 100 µM (inactive) | GI50 [8]: > 100 µM (inactive) | GI50 [12]: > 100 µM (inactive) | GI50 [13]: > 100 µM (inactive) | GI50 [14]: > 100 µM (inactive) | GI50 [15]: > 100 µM (inactive) | GI50 [16]: > 100 µM (inactive)

CC1C(c2ccccc2)OP(=O)(OC(C#N)c2ccccc2)N1C (stereo not drawn)
GI50 [1]: > 100 µM (inactive) | GI50 [2]: > 100 µM (inactive) | GI50 [3]: > 100 µM (inactive) | GI50 [4]: > 100 µM (inactive) | GI50 [5]: 27.6 µM (inactive) | GI50 [6]: > 100 µM (inactive) | GI50 [7]: > 100 µM (inactive) | GI50 [8]: 79.6 µM (inactive) | GI50 [9]: 37.6 µM (inactive) | GI50 [10]: > 100 µM (inactive) | GI50 [11]: 81.1 µM (inactive) | GI50 [12]: > 100 µM (inactive) | GI50 [13]: > 100 µM (inactive) | GI50 [14]: > 100 µM (inactive) | GI50 [15]: > 100 µM (inactive) | GI50 [16]: 91.4 µM (inactive) | GI50 [17]: 40.8 µM (inactive)

CN(C)c1ccc(/C=C/C(=O)c2ccccc2)cc1Br
GI50 [1]: 34.9 µM (inactive) | GI50 [2]: 22.8 µM (inactive) | GI50 [3]: 16.3 µM (inactive) | GI50 [18]: 18.9 µM (inactive) | GI50 [19]: 17.3 µM (inactive) | GI50 [6]: 19.7 µM (inactive) | GI50 [12]: 17.8 µM (inactive) | GI50 [13]: 18.2 µM (inactive) | GI50 [14]: 13.7 µM (inactive) | GI50 [15]: 18.8 µM (inactive)

COc1cc2c(cc1O)[C@H](Cc1ccc(Oc3cc(C[C@H]4c5cc(OC)c(OC)cc5CCN4C)ccc3OC)cc1)NCC2
GI50 [1]: 17.9 µM (inactive) | GI50 [2]: 11.4 µM (inactive) | GI50 [3]: 4.08 µM (inactive) | GI50 [19]: 18.7 µM (inactive) | GI50 [5]: 12.4 µM (inactive) | GI50 [6]: 6.22 µM (inactive) | GI50 [8]: 8.95 µM (inactive) | GI50 [12]: 10.5 µM (inactive) | GI50 [13]: 11.1 µM (inactive) | GI50 [14]: 16.8 µM (inactive) | GI50 [15]: 16.1 µM (inactive) | GI50 [16]: 7.5 µM (inactive)

N#CC(NC12CC3CC(CC(C3)C1)C2)c1ccccc1 (stereo not drawn)
GI50 [1]: > 100 µM (inactive) | GI50 [2]: > 100 µM (inactive) | GI50 [3]: > 100 µM (inactive) | GI50 [4]: > 100 µM (inactive) | GI50 [5]: > 100 µM (inactive) | GI50 [6]: > 100 µM (inactive) | GI50 [7]: > 100 µM (inactive) | GI50 [8]: > 100 µM (inactive) | GI50 [9]: > 100 µM (inactive) | GI50 [10]: > 100 µM (inactive) | GI50 [11]: > 100 µM (inactive) | GI50 [12]: > 100 µM (inactive) | GI50 [13]: > 100 µM (inactive) | GI50 [14]: > 100 µM (inactive) | GI50 [15]: > 100 µM (inactive) | GI50 [16]: > 100 µM (inactive) | GI50 [17]: > 100 µM (inactive)

CC(C)=CC(=O)O[C@@H]1CC(C)(C)CC2C3=CCC4[C@]56CC[C@](O)(OC5)C(C)(C)C6CC[C@@]4(C)C3(C)CC[C@]21C(=O)O (stereo partly drawn)
GI50 [1]: 33.7 µM (inactive) | GI50 [2]: 25.8 µM (inactive) | GI50 [3]: > 100 µM (inactive) | GI50 [4]: 56.4 µM (inactive) | GI50 [5]: 44.2 µM (inactive) | GI50 [6]: 38.4 µM (inactive) | GI50 [7]: > 100 µM (inactive) | GI50 [8]: 17.1 µM (inactive) | GI50 [9]: > 100 µM (inactive) | GI50 [10]: > 100 µM (inactive) | GI50 [11]: > 100 µM (inactive) | GI50 [12]: 31.3 µM (inactive) | GI50 [13]: 74.1 µM (inactive) | GI50 [14]: > 100 µM (inactive) | GI50 [15]: 54.3 µM (inactive) | GI50 [16]: 61 µM (inactive) | GI50 [17]: > 100 µM (inactive)

Nc1ccn(C=C=CCO)c(=O)n1
GI50 [1]: > 100 µM (inactive) | GI50 [2]: > 100 µM (inactive) | GI50 [3]: > 100 µM (inactive) | GI50 [4]: > 100 µM (inactive) | GI50 [5]: 48.9 µM (inactive) | GI50 [6]: > 100 µM (inactive) | GI50 [7]: > 100 µM (inactive) | GI50 [8]: > 100 µM (inactive) | GI50 [9]: > 100 µM (inactive) | GI50 [10]: > 100 µM (inactive) | GI50 [11]: > 100 µM (inactive) | GI50 [12]: > 100 µM (inactive) | GI50 [13]: > 100 µM (inactive) | GI50 [14]: > 100 µM (inactive) | GI50 [15]: > 100 µM (inactive) | GI50 [16]: 190 µM (inactive) | GI50 [17]: > 93.8 µM (inactive)

COc1cc(-c2oc3c(OC)c(O)c(OC)c(O)c3c(=O)c2OC)cc(OC)c1OC
GI50 [1]: > 100 µM (inactive) | GI50 [2]: 48.3 µM (inactive) | GI50 [3]: 42.8 µM (inactive) | GI50 [4]: > 100 µM (inactive) | GI50 [5]: 41 µM (inactive) | GI50 [6]: 50.4 µM (inactive) | GI50 [7]: 14.3 µM (inactive) | GI50 [8]: 35.4 µM (inactive) | GI50 [9]: 38 µM (inactive) | GI50 [10]: 73.6 µM (inactive) | GI50 [11]: 35.4 µM (inactive) | GI50 [12]: 31.6 µM (inactive) | GI50 [13]: 21 µM (inactive) | GI50 [14]: 81.5 µM (inactive) | GI50 [15]: > 100 µM (inactive) | GI50 [16]: 51.2 µM (inactive) | GI50 [17]: 24.6 µM (inactive)
